Laboratory results from the supplement of paper PMC10307832.

Each cell line was assayed with COc1nc(N)nc2c1ncn2[C@@H]1O[C@H](CO)[C@@H](O)[C@@H]1O [Nelarabine] + NC(=O)Nc1cc(-c2cccc(F)c2)sc1C(=O)N[C@H]1CCCNC1 [AZD7762] (partner 0.2 µM) (assay: relative viability (nuclei count vs DMSO), 5 days (fraction); higher = more cells survive). Details: first compound 1 µM.
Method in brief: (§1)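 The day after seeding in 1536-well plates, lung cancer cell lines were treated by pin tool with a single drug, or with a fixed anchor-drug dose together with five library-drug doses (not always all listed) in √10 steps. After 5 days, a combined fix-and-stain solution (final 0.05% Triton X-100, 1% formaldehyde, 1 ug/ml Hoechst) was added. Nuclei counted on 4× images gave relative viability as treated counts over vehicle counts, reported as the median of duplicate plates.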

Going from NCI-H1993 to NCI-H2085, the relative viability rises from 0.692 to 0.987.

Going from NCI-H2087 to NCI-H2126, the relative viability falls from 1.21 to 0.997.

Compared with NCI-H2170, NCI-H2347 is higher in relative viability: 0.709 for the first, 0.769 for the second.

Going from NCI-H2405 to NCI-H3122, the relative viability rises from 0.81 to 0.969.

In the case of PC-3 [JPC-3], the relative viability is reported as 0.792.

What follows are cell lines tested with COc1nc(N)nc2c1ncn2[C@@H]1O[C@H](CO)[C@@H](O)[C@@H]1O [Nelarabine] + CS(=O)(=O)N1CCN(Cc2cc3nc(-c4cccc5[nH]ncc45)nc(N4CCOCC4)c3s2)CC1 [Pictilisib] (partner 1 µM) in the same assay as above. Details: first compound 0.01 µM.
Method in brief: as §1

Going from LOU-NH91 to LU99A, the relative viability falls from 0.515 to 0.302.

Going from LXF-289 to NCI-H23, the relative viability falls from 0.739 to 0.494.

First: NCI-H322M
Second: NCI-H358
The relative viability of the first is higher: 0.505 for the first, 0.374 for the second.

Compared with NCI-H441, NCI-H460 is lower in relative viability: 0.488 for the first, 0.408 for the second.

First: NCI-H596
Second: NCI-H647
The relative viability of the first is lower: 0.402 for the first, 0.475 for the second.

Compared with NCI-H650, NCI-H727 is lower in relative viability: 1.05 for the first, 0.581 for the second.

First: NCI-H838
Second: NCI-H1355
The relative viability of the first is lower: 0.481 for the first, 0.484 for the second.

Compared with NCI-H1395, NCI-H1437 is lower in relative viability: 0.729 for the first, 0.465 for the second.

First: NCI-H1651
Second: NCI-H1666
The relative viability of the first is higher: 0.683 for the first, 0.524 for the second.

First: NCI-H1734
Second: NCI-H1755
The relative viability of the first is higher: 0.561 for the first, 0.488 for the second.

First: NCI-H1792
Second: NCI-H1793
The relative viability of the first is lower: 0.348 for the first, 0.367 for the second.

First: NCI-H1915
Second: NCI-H1944
The relative viability of the first is higher: 1.08 for the first, 0.369 for the second.

Compared with NCI-H1975, NCI-H1993 is higher in relative viability: 0.325 for the first, 0.718 for the second.

Compared with NCI-H2085, NCI-H2087 is higher in relative viability: 0.462 for the first, 0.961 for the second.

Going from NCI-H2126 to NCI-H2170, the relative viability falls from 0.517 to 0.326.

Compared with NCI-H2347, NCI-H2405 is lower in relative viability: 0.555 for the first, 0.532 for the second.

Going from NCI-H3122 to PC-3 [JPC-3], the relative viability rises from 0.588 to 0.599.

Same assay, conditions: first compound 0.03162 µM

Going from LOU-NH91 to LU99A, the relative viability falls from 0.464 to 0.269.

Going from LXF-289 to NCI-H23, the relative viability falls from 0.841 to 0.499.

Compared with NCI-H322M, NCI-H358 is lower in relative viability: 0.523 for the first, 0.3 for the second.

Compared with NCI-H441, NCI-H460 is higher in relative viability: 0.376 for the first, 0.431 for the second.

Going from NCI-H596 to NCI-H647, the relative viability falls from 0.445 to 0.363.

Going from NCI-H650 to NCI-H727, the relative viability falls from 0.789 to 0.476.

First: NCI-H838
Second: NCI-H1355
The relative viability of the first is lower: 0.331 for the first, 0.366 for the second.

Compared with NCI-H1395, NCI-H1437 is lower in relative viability: 0.646 for the first, 0.356 for the second.

First: NCI-H1651
Second: NCI-H1666
The relative viability of the first is higher: 0.476 for the first, 0.419 for the second.

Going from NCI-H1734 to NCI-H1755, the relative viability falls from 0.538 to 0.429.

First: NCI-H1793
Second: NCI-H1915
The relative viability of the first is lower: 0.35 for the first, 0.939 for the second.

Compared with NCI-H1944, NCI-H1975 is lower in relative viability: 0.322 for the first, 0.295 for the second.

First: NCI-H1993
Second: NCI-H2085
The relative viability of the first is higher: 0.81 for the first, 0.372 for the second.

Going from NCI-H2087 to NCI-H2126, the relative viability falls from 0.975 to 0.48.

Compared with NCI-H2170, NCI-H2347 is higher in relative viability: 0.253 for the first, 0.303 for the second.

Going from NCI-H2405 to NCI-H3122, the relative viability falls from 0.464 to 0.388.

Work on PC-3 [JPC-3] yielded a relative viability of 0.853.

Same assay, conditions: first compound 0.1 µM

First: LOU-NH91
Second: LU99A
The relative viability of the first is higher: 0.487 for the first, 0.327 for the second.

Going from LXF-289 to NCI-H23, the relative viability falls from 0.845 to 0.528.

Compared with NCI-H322M, NCI-H358 is lower in relative viability: 0.433 for the first, 0.294 for the second.

Compared with NCI-H441, NCI-H460 is lower in relative viability: 0.543 for the first, 0.379 for the second.

Going from NCI-H596 to NCI-H647, the relative viability rises from 0.399 to 0.492.

First: NCI-H650
Second: NCI-H727
The relative viability of the first is higher: 0.762 for the first, 0.348 for the second.

Going from NCI-H838 to NCI-H1355, the relative viability falls from 0.428 to 0.335.

First: NCI-H1395
Second: NCI-H1437
The relative viability of the first is higher: 0.659 for the first, 0.373 for the second.

Compared with NCI-H1651, NCI-H1666 is lower in relative viability: 0.63 for the first, 0.371 for the second.

Going from NCI-H1734 to NCI-H1755, the relative viability falls from 0.516 to 0.507.

Compared with NCI-H1792, NCI-H1793 is lower in relative viability: 0.323 for the first, 0.293 for the second.

Going from NCI-H1915 to NCI-H1944, the relative viability falls from 1.04 to 0.339.

Going from NCI-H1975 to NCI-H1993, the relative viability rises from 0.369 to 0.894.

Compared with NCI-H2085, NCI-H2087 is higher in relative viability: 0.536 for the first, 0.99 for the second.

Compared with NCI-H2126, NCI-H2170 is lower in relative viability: 0.453 for the first, 0.253 for the second.

Going from NCI-H2347 to NCI-H2405, the relative viability falls from 0.766 to 0.382.

Cell Line PC-3 [JPC-3] has a relative viability of 0.7.

Same assay, conditions: first compound 0.3162 µM

Going from LOU-NH91 to LU99A, the relative viability falls from 0.527 to 0.321.

First: LXF-289
Second: NCI-H23
The relative viability of the first is higher: 0.801 for the first, 0.459 for the second.

Compared with NCI-H322M, NCI-H358 is lower in relative viability: 0.568 for the first, 0.362 for the second.

Going from NCI-H441 to NCI-H460, the relative viability falls from 0.461 to 0.407.

Going from NCI-H596 to NCI-H647, the relative viability rises from 0.376 to 0.445.

Going from NCI-H650 to NCI-H727, the relative viability falls from 0.917 to 0.397.

First: NCI-H838
Second: NCI-H1355
The relative viability of the first is higher: 0.474 for the first, 0.465 for the second.

Going from NCI-H1395 to NCI-H1437, the relative viability falls from 0.694 to 0.426.

Compared with NCI-H1651, NCI-H1666 is lower in relative viability: 0.699 for the first, 0.409 for the second.

Going from NCI-H1734 to NCI-H1755, the relative viability falls from 0.479 to 0.429.

First: NCI-H1792
Second: NCI-H1793
The relative viability of the first is higher: 0.326 for the first, 0.314 for the second.

Going from NCI-H1915 to NCI-H1944, the relative viability falls from 0.959 to 0.399.

Compared with NCI-H1975, NCI-H1993 is higher in relative viability: 0.335 for the first, 0.779 for the second.

First: NCI-H2085
Second: NCI-H2087
The relative viability of the first is lower: 0.46 for the first, 1.22 for the second.

Compared with NCI-H2126, NCI-H2170 is lower in relative viability: 0.483 for the first, 0.34 for the second.

First: NCI-H2347
Second: NCI-H2405
The relative viability of the first is higher: 0.726 for the first, 0.49 for the second.

First: NCI-H3122
Second: PC-3 [JPC-3]
The relative viability of the first is lower: 0.63 for the first, 0.895 for the second.

Same assay, conditions: first compound 1 µM

First: LOU-NH91
Second: LU99A
The relative viability of the first is higher: 0.54 for the first, 0.299 for the second.

Going from LXF-289 to NCI-H23, the relative viability falls from 0.751 to 0.51.

Going from NCI-H322M to NCI-H358, the relative viability falls from 0.542 to 0.328.

Going from NCI-H441 to NCI-H460, the relative viability falls from 0.582 to 0.337.

First: NCI-H596
Second: NCI-H647
The relative viability of the first is higher: 0.446 for the first, 0.37 for the second.

Going from NCI-H650 to NCI-H727, the relative viability falls from 1.04 to 0.302.

Compared with NCI-H838, NCI-H1355 is higher in relative viability: 0.438 for the first, 0.478 for the second.

First: NCI-H1395
Second: NCI-H1437
The relative viability of the first is higher: 0.618 for the first, 0.47 for the second.

In the case of NCI-H1651, the relative viability is reported as 0.736.
